Source: patent publication US11098038B2, “Imidazole-based anticancer agents and derivatives thereof, and methods of making and using same” (The University of Toledo, priority 2017, dated 2021)

What was measured:
CCRF-CEM = test: NCI 60 screen, CCRF-CEM; type: cell-based; settings: Homo sapiens, Leukemia
Description: (§1) The compounds synthesized were tested at the National Cancer Institute (NCI) for anti-proliferative activity in the 60 human tumor cell line assay.

HL-60(TB) = test: NCI 60 screen, HL-60(TB); type: cell-based; settings: Homo sapiens, Leukemia
Description: as §1

K-562 = test: NCI 60 screen, K-562; type: cell-based; settings: Homo sapiens, K562, Leukemia
Description: as §1

MOLT-4 = test: NCI 60 screen, MOLT-4; type: cell-based; settings: Homo sapiens, Leukemia
Description: as §1

RPMI-8226 = test: NCI 60 screen, RPMI-8226; type: cell-based; settings: Homo sapiens, Leukemia
Description: as §1

SR = test: NCI 60 screen, SR; type: cell-based; settings: Homo sapiens, Leukemia
Description: as §1

A549/ATCC = test: NCI 60 screen, A549/ATCC; type: cell-based; settings: Homo sapiens, Non-Small Cell Lung
Description: as §1

EKVX = test: NCI 60 screen, EKVX; type: cell-based; settings: Homo sapiens, Non-Small Cell Lung
Description: as §1

HOP-62 = test: NCI 60 screen, HOP-62; type: cell-based; settings: Homo sapiens, Non-Small Cell Lung
Description: as §1

HOP-92 = test: NCI 60 screen, HOP-92; type: cell-based; settings: Homo sapiens, Non-Small Cell Lung
Description: as §1

NCI-H226 = test: NCI 60 screen, NCI-H226; type: cell-based; settings: Homo sapiens, Non-Small Cell Lung
Description: as §1

NCI-H23 = test: NCI 60 screen, NCI-H23; type: cell-based; settings: Homo sapiens, Non-Small Cell Lung
Description: as §1

NCI-322M = test: NCI 60 screen, NCI-322M; type: cell-based; settings: Homo sapiens, Non-Small Cell Lung
Description: as §1

NCI-460 = test: NCI 60 screen, NCI-460; type: cell-based; settings: Homo sapiens, Non-Small Cell Lung
Description: as §1

NCI-H522 = test: NCI 60 screen, NCI-H522; type: cell-based; settings: Homo sapiens, Non-Small Cell Lung
Description: as §1

COLO 205 = test: NCI 60 screen, COLO 205; type: cell-based; settings: Homo sapiens, Colon
Description: as §1

HCC-2998 = test: NCI 60 screen, HCC-2998; type: cell-based; settings: Homo sapiens, Colon
Description: as §1

HCT-116 = test: NCI 60 screen, HCT-116; type: cell-based; settings: Homo sapiens, Colon
Description: as §1

HCT15 = test: NCI 60 screen, HCT15; type: cell-based; settings: Homo sapiens, HCT-15, Colon
Description: as §1

HT29 = test: NCI 60 screen, HT29; type: cell-based; settings: Homo sapiens, HT-29, Colon
Description: as §1

KM12 = test: NCI 60 screen, KM12; type: cell-based; settings: Homo sapiens, Colon
Description: as §1

SW-620 = test: NCI 60 screen, SW-620; type: cell-based; settings: Homo sapiens, Colon
Description: as §1

SF-268 = test: NCI 60 screen, SF-268; type: cell-based; settings: Homo sapiens, CNS
Description: as §1

SF-295 = test: NCI 60 screen, SF-295; type: cell-based; settings: Homo sapiens, CNS
Description: as §1

SF-539 = test: NCI 60 screen, SF-539; type: cell-based; settings: Homo sapiens, CNS
Description: as §1

SNB-19 = test: NCI 60 screen, SNB-19; type: cell-based; settings: Homo sapiens, CNS
Description: as §1

SNB-75 = test: NCI 60 screen, SNB-75; type: cell-based; settings: Homo sapiens, CNS
Description: as §1

U251 = test: NCI 60 screen, U251; type: cell-based; settings: Homo sapiens, U-251, CNS
Description: as §1

LOX IMVI = test: NCI 60 screen, LOX IMVI; type: cell-based; settings: Homo sapiens, Melanoma
Description: as §1

MALME-3M = test: NCI 60 screen, MALME-3M; type: cell-based; settings: Homo sapiens, Melanoma
Description: as §1

M14 = test: NCI 60 screen, M14; type: cell-based; settings: Homo sapiens, Melanoma
Description: as §1

MDA-MB-435 = test: NCI 60 screen, MDA-MB-435; type: cell-based; settings: Homo sapiens, Melanoma
Description: as §1

SK-MEL-2 [1] = test: NCI 60 screen, SK-MEL-2 (first line); type: cell-based; settings: Homo sapiens; Melanoma, SK-MEL-2 (first of two lines so named, r37)
Description: as §1

SK-MEL-2 [2] = test: NCI 60 screen, SK-MEL-2 (second line); type: cell-based; settings: Homo sapiens; Melanoma, SK-MEL-2 (second of two lines so named, r38)
Description: as §1

SK-MEL-5 = test: NCI 60 screen, SK-MEL-5; type: cell-based; settings: Homo sapiens, Melanoma
Description: as §1

UACC-257 = test: NCI 60 screen, UACC-257; type: cell-based; settings: Homo sapiens, Melanoma
Description: as §1

UACC-62 = test: NCI 60 screen, UACC-62; type: cell-based; settings: Homo sapiens, Melanoma
Description: as §1

IGROV1 = test: NCI 60 screen, IGROV1; type: cell-based; settings: Homo sapiens, IGROV-1, Ovarian
Description: as §1

OVCAR-3 = test: NCI 60 screen, OVCAR-3; type: cell-based; settings: Homo sapiens, Ovarian
Description: as §1

OVCAR-4 = test: NCI 60 screen, OVCAR-4; type: cell-based; settings: Homo sapiens, Ovarian
Description: as §1

OVCAR-5 = test: NCI 60 screen, OVCAR-5; type: cell-based; settings: Homo sapiens, Ovarian
Description: as §1

OVCAR-8 = test: NCI 60 screen, OVCAR-8; type: cell-based; settings: Homo sapiens, Ovarian
Description: as §1

NCI/ADR-RES = test: NCI 60 screen, NCI/ADR-RES; type: cell-based; settings: Homo sapiens, Ovarian
Description: as §1

SK-OV-3 = test: NCI 60 screen, SK-OV-3; type: cell-based; settings: Homo sapiens, Ovarian
Description: as §1

786-0 = test: NCI 60 screen, 786-0; type: cell-based; settings: Homo sapiens, Renal
Description: as §1

A498 = test: NCI 60 screen, A498; type: cell-based; settings: Homo sapiens, Renal
Description: as §1

ACHN = test: NCI 60 screen, ACHN; type: cell-based; settings: Homo sapiens, Renal
Description: as §1

RXF393 = test: NCI 60 screen, RXF393; type: cell-based; settings: Homo sapiens, RXF 393, Renal
Description: as §1

SN12C = test: NCI 60 screen, SN12C; type: cell-based; settings: Homo sapiens, Renal
Description: as §1

TK-10 = test: NCI 60 screen, TK-10; type: cell-based; settings: Homo sapiens, Renal
Description: as §1

UO-31 = test: NCI 60 screen, UO-31; type: cell-based; settings: Homo sapiens, Renal
Description: as §1

PC-3 = test: NCI 60 screen, PC-3; type: cell-based; settings: Homo sapiens, Prostatic
Description: as §1

DU-145 = test: NCI 60 screen, DU-145; type: cell-based; settings: Homo sapiens, Prostatic
Description: as §1

MCF7 = test: NCI 60 screen, MCF7; type: cell-based; settings: Homo sapiens, Breast
Description: as §1

MDA-MB-231/ATCC = test: NCI 60 screen, MDA-MB-231/ATCC; type: cell-based; settings: Homo sapiens, Breast
Description: as §1

HS 578T = test: NCI 60 screen, HS 578T; type: cell-based; settings: Homo sapiens, Breast
Description: as §1

BT-549 = test: NCI 60 screen, BT-549; type: cell-based; settings: Homo sapiens, Breast
Description: as §1

T-47D = test: NCI 60 screen, T-47D; type: cell-based; settings: Homo sapiens, T47D, Breast
Description: as §1

MDA-MB-468 = test: NCI 60 screen, MDA-MB-468; type: cell-based; settings: Homo sapiens, Breast
Description: as §1

CAKI-1 = test: NCI 60 screen, CAKI-1; type: cell-based; settings: Homo sapiens, Renal
Description: as §1

O=C(Cc1ccc(/C=C/C(=O)c2ncc[nH]2)cc1)Nc1ccc(F)cc1 [Compound 22, (E)-2-(4-(3-(1H-imidazol-2-yl)-3-oxoprop-1-en-1-yl)phenyl)-N-(4-fluorophenyl)acetamide]
GI50 (CCRF-CEM): 1.68 µM
GI50 (HL-60(TB)): 1.66 µM
GI50 (K-562): 1.3 µM
GI50 (MOLT-4): 5.74 µM
GI50 (RPMI-8226): 1.27 µM
GI50 (SR): 1.11 µM
GI50 (A549/ATCC): 6.94 µM
GI50 (EKVX): 7.46 µM
GI50 (HOP-62): 2.64 µM
GI50 (HOP-92): 9.11 µM
GI50 (NCI-H226): 9.85 µM
GI50 (NCI-H23): 1.91 µM
GI50 (NCI-322M): 3.35 µM
GI50 (NCI-460): 1.72 µM
GI50 (NCI-H522): 3.38 µM
GI50 (COLO 205): 4.54 µM
GI50 (HCC-2998): 5.43 µM
GI50 (HCT-116): 1.89 µM
GI50 (HCT15): 1.15 µM
GI50 (HT29): 1.15 µM
GI50 (KM12): 2.1 µM
GI50 (SW-620): 1.43 µM
GI50 (SF-268): 5.1 µM
GI50 (SF-295): 4.74 µM
GI50 (SF-539): 0.84 µM
GI50 (SNB-19): 1.58 µM
GI50 (SNB-75): 1.11 µM
GI50 (U251): 1.2 µM
GI50 (LOX IMVI): 1.07 µM
GI50 (MALME-3M): 7.86 µM
GI50 (M14): 5.98 µM
GI50 (MDA-MB-435): 4.07 µM
GI50 (SK-MEL-2 [1]): 7.47 µM
GI50 (SK-MEL-2 [2]): 6.26 µM
GI50 (SK-MEL-5): 6.06 µM
GI50 (UACC-257): 8.67 µM
GI50 (UACC-62): 5.92 µM
GI50 (IGROV1): 2.66 µM
GI50 (OVCAR-3): 1.7 µM
GI50 (OVCAR-4): 9.14 µM
GI50 (OVCAR-5): 2.6 µM
GI50 (OVCAR-8): 5.08 µM
GI50 (NCI/ADR-RES): 7.18 µM
GI50 (SK-OV-3): 9.38 µM
GI50 (786-0): 1.37 µM
GI50 (A498): 8.93 µM
GI50 (ACHN): 4.82 µM
GI50 (RXF393): 3.44 µM
GI50 (SN12C): 2.93 µM
GI50 (TK-10): 7.89 µM
GI50 (UO-31): 2.64 µM
GI50 (PC-3): 2.8 µM
GI50 (DU-145): 1.19 µM
GI50 (MCF7): 0.99 µM
GI50 (MDA-MB-231/ATCC): 1.83 µM
GI50 (HS 578T): 2.33 µM
GI50 (BT-549): 2.73 µM
GI50 (T-47D): 3.33 µM
GI50 (MDA-MB-468): 0.97 µM

Cn1ccnc1C(=O)/C=C/c1ccc(CC(=O)Nc2ccc(Cl)cc2)cc1 [Compound 30, (E)-N-(4-chlorophenyl)-2-(4-(3-(1-methyl-1H-imidazol-2-yl)-3-oxoprop-1-en-1-yl)phenyl)acetamide]
GI50 (CCRF-CEM): 1.46 µM
GI50 (HL-60(TB)): 4.81 µM
GI50 (MOLT-4): 1.74 µM
GI50 (RPMI-8226): 0.959 µM
GI50 (A549/ATCC): 1.15 µM
GI50 (EKVX): 1.56 µM
GI50 (HOP-62): 2.16 µM
GI50 (HOP-92): 2.5 µM
GI50 (NCI-H226): 7.42 µM
GI50 (NCI-H23): 2.04 µM
GI50 (NCI-322M): 3.99 µM
GI50 (NCI-460): 1.58 µM
GI50 (NCI-H522): 4.85 µM
GI50 (COLO 205): 9.44 µM
GI50 (HCC-2998): 3.42 µM
GI50 (HCT-116): 1.31 µM
GI50 (HCT15): 0.999 µM
GI50 (HT29): 0.889 µM
GI50 (KM12): 1.51 µM
GI50 (SW-620): 1.25 µM
GI50 (SF-268): 1.24 µM
GI50 (SF-295): 7.39 µM
GI50 (SF-539): 6.4 µM
GI50 (SNB-19): 1.77 µM
GI50 (SNB-75): 1.9 µM
GI50 (U251): 1.1 µM
GI50 (LOX IMVI): 1.07 µM
GI50 (MALME-3M): 14.2 µM
GI50 (MDA-MB-435): 9.15 µM
GI50 (SK-MEL-2 [1]): 25 µM
GI50 (SK-MEL-2 [2]): 25 µM
GI50 (SK-MEL-5): 14.4 µM
GI50 (UACC-257): 25 µM
GI50 (UACC-62): 6.5 µM
GI50 (IGROV1): 5.27 µM
GI50 (OVCAR-3): 1.03 µM
GI50 (OVCAR-4): 2.18 µM
GI50 (OVCAR-5): 9.98 µM
GI50 (OVCAR-8): 3.49 µM
GI50 (NCI/ADR-RES): 2.22 µM
GI50 (SK-OV-3): 8.79 µM
GI50 (786-0): 1.6 µM
GI50 (A498): 25 µM
GI50 (ACHN): 15 µM
GI50 (CAKI-1): 13.5 µM
GI50 (RXF393): 2.97 µM
GI50 (SN12C): 3.04 µM
GI50 (TK-10): 12.3 µM
GI50 (UO-31): 2.27 µM
GI50 (PC-3): 1.37 µM
GI50 (DU-145): 1.42 µM
GI50 (MCF7): 0.891 µM
GI50 (MDA-MB-231/ATCC): 5.23 µM
GI50 (HS 578T): 15.7 µM
GI50 (BT-549): 3.53 µM
GI50 (T-47D): 4.3 µM
GI50 (MDA-MB-468): 1.03 µM
melting point: 250 °C
